Experimental data taken from US20170349949A1, “METHODS OF SELECTING SUBJECTS FOR TREATMENT WITH METABOLIC MODULATORS” (Partikula LLC, priority 2016, published 2017).

Tests used:
[1] = system: pyruvate dehydrogenase; details: highly purified pyruvate dehydrogenase, cited from earlier work
[2] = system: A549 cells; assay: Extracellular lactate after PDK inhibitor, with or without UK5099 pre-treatment; assay type: cell-based; details: 16 hrs UK5099 pre-treatment, then DCA 50 mM or KULA2 500 μM for 6 hrs
Protocol: A549 cells were pre-treated for 16 hrs with the MPC inhibitor UK5099 and then subsequently treated with the test articles for 6 hrs; extracellular lactate was then measured. Dichloroacetate (DCA) and KULA2, a dichloroacetate (DCA) analogue targeted to the mitochondria with a lipophilic triphenylphosphonium (TPP) cation moiety, were used ((Pathak R K et al., ACS Chem. Biol., 9 (5) 1178-1187 (2014), (Pathak R K et al., ACS Chem. Biol., 9 (5) 1178-1187 (2014), and WO/2015/002996). DCA is dosed at 50 mM and KULA2 is dosed at 500 μM.

[3] = system: HCT116 tumors; assay: KULA2 in mice harboring HCT116 tumors (MPC null); assay type: in vivo; details: comparator results named beside KULA2 in HCT116; dose and source not given
Protocol: CT26 is the MPC+ group. MPC levels were verified via western blotting or otherwise known (see, e.g., Schell, et al., Molecular Cell, 56:400-413 (2014)).
In both models HCT116 and CT26 the mice (between 8-10 per arm) were dosed with KULA2 via i.p. injection and vehicle, HCT116 tumors at a dose of 20 mg/kg, and CT26 tumors at a dose of 18 mg/kg. Dosing schedule in both cases was 5 days on, 2 days off for the duration of the study.
Experiments were designed to determine if MPC expression correlates with the efficacy of PDK inhibitor. A PDK inhibitor, KULA2, was administered to mice harboring HCT116 tumors (at a dose of 20 mg/kg) or CT26 tumors (at a dose of 18 mg/kg).

Molecule	tumor inhibition (comparators) [3]	other results
Cc1ncc(C[n+]2csc(CCO[P@](=O)(O)OP(=O)(O)O)c2C)c(N)n1 [TPP, thiamine pyrophosphate]	–	Km ([1]; read-out: Km of cofactor): 0.11 µM
N#C/C(=C\c1cn(-c2ccccc2)c2ccccc12)C(=O)O [UK5099]	–	effect of MPC inhibition on lactate reduction by PDK inhibitors [2]: lowers the lactate reduction normally seen with PDK inhibitors
N.N.[Cl][Pt][Cl] [cisplatin]	22%	–
Cc1ncc(C[n+]2csc(CCO)c2C)c(=O)[nH]1 [oxythiamine, Oxythiamine]	–	Ki ([1]; oxythiamine diphosphate ester, read-out: KI against the normal cofactor TPP): 0.07 µM
CNC(=O)c1cc(Oc2ccc(NC(=O)Nc3ccc(Cl)c(C(F)(F)F)c3)cc2)ccn1 [sorafenib]	17%	–
VEGF-TRAP: comparator named for tumor inhibition	22%	–
